In ChEMBL document CHEMBL6134821, “Design, synthesis, and biological evaluation of novel BTK-targeting proteolysis targeting chimeras (PROTACs) with enhanced pharmacokinetic properties” (Eur J Med Chem, 2025):
One block for each molecule: values may come before it. Calls of active or inactive are those of the source. No cut-off for these calls is given here.

How the values were obtained:
[1] = target: T1, Protein cereblon/Tyrosine-protein kinase BTK (Homo sapiens, UniProt Q06187+Q96SW2); assay: PROTAC activity at CRBN/BTK in human JeKo-1 cells assessed as BTK degradation up to 100 nM incubated for 24 hrs by Western blot analysis; type: cell-based
Target sequence in this assay (Q06187 2-659 limits assumed): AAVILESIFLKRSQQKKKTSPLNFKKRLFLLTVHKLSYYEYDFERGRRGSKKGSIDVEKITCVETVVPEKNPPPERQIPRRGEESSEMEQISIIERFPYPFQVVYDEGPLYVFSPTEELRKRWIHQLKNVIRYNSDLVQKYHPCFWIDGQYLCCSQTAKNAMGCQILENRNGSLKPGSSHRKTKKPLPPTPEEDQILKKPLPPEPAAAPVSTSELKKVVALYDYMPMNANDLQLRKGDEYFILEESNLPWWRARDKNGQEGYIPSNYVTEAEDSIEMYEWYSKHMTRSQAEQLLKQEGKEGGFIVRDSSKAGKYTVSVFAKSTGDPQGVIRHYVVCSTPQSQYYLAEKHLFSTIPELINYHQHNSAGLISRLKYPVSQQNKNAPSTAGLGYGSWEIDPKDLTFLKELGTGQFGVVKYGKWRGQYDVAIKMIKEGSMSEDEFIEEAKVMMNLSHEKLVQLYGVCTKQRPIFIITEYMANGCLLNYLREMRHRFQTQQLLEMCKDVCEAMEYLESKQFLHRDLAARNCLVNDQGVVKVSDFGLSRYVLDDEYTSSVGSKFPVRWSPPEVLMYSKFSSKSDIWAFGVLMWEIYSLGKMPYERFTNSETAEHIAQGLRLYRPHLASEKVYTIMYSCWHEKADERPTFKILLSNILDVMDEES
Target sequence in this assay (Q96SW2 whole entry partner): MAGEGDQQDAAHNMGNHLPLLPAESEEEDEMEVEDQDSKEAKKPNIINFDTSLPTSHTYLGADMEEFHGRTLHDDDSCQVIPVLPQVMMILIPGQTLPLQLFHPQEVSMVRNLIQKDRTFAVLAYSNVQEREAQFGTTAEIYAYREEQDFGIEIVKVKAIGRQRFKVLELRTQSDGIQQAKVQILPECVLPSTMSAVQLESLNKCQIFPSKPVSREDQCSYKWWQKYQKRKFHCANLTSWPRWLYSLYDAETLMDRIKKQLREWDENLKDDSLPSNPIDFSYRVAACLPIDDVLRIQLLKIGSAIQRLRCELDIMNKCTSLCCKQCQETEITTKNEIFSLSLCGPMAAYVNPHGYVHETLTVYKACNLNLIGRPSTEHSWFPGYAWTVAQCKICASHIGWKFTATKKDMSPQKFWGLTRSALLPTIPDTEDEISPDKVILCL

[2] = Toxicity in mouse at 2 mg/kg, iv measured for 0.083 to 24 hrs by LC-MS/MS analysis; type: organism-based; settings: in vivo, time 0.083-24 hrs
[3] = Drug concentration in plasma of mouse at 30 mg/kg, ip measured after 24 hrs by LC-MS/MS analysis; type: ADME, organism-based
[4] = AUC (0 to t) in mouse at 2 mg/kg, iv measured for 0.083 to 24 hrs by LC-MS/MS analysis; type: ADME, organism-based; settings: in vivo, time 0.083-24 hrs
[5] = Cmax in mouse at 30 mg/kg, ip measured after 0.083 hrs by LC-MS/MS analysis; type: ADME, organism-based; settings: in vivo
[6] = target: T1, Protein cereblon/Tyrosine-protein kinase BTK; assay: PROTAC activity at CRBN/BTK in human JeKo-1 cells assessed as BTK degradation at 10 nM incubated for 24 hrs by Western blot analysis relative to control; type: cell-based
Target sequence in this assay (Q06187 2-659 limits assumed): as the sequence (Q06187 2-659 limits assumed) above
Target sequence in this assay (Q96SW2 whole entry partner): as the sequence (Q96SW2 whole entry partner) above

[7] = target: T1, Protein cereblon/Tyrosine-protein kinase BTK; assay: PROTAC activity at CRBN/BTK in human JeKo-1 cells assessed as BTK degradation at 30 nM incubated for 24 hrs by Western blot analysis relative to control; type: cell-based
Target sequence in this assay (Q06187 2-659 limits assumed): as the sequence (Q06187 2-659 limits assumed) above
Target sequence in this assay (Q96SW2 whole entry partner): as the sequence (Q96SW2 whole entry partner) above

[8] = target: T1, Protein cereblon/Tyrosine-protein kinase BTK; assay: PROTAC activity at CRBN/BTK in human JeKo-1 cells assessed as BTK degradation at 100 nM incubated for 24 hrs by Western blot analysis relative to control; type: cell-based
Target sequence in this assay (Q06187 2-659 limits assumed): as the sequence (Q06187 2-659 limits assumed) above
Target sequence in this assay (Q96SW2 whole entry partner): as the sequence (Q96SW2 whole entry partner) above

[9] = target: T1, Protein cereblon/Tyrosine-protein kinase BTK; assay: PROTAC activity at CRBN/BTK in human JeKo-1 cells assessed as BTK degradation incubated for 24 hrs by Western blot analysis; type: cell-based
[10] = Microsomal stability in human liver microsomes assessed as half life measured up to 60 mins in presence of NADPH by LC-MS/MS analysis; type: ADME, Microsome
[11] = Microsomal stability in human liver microsomes assessed as intrinsic clearance in microsomes measured up to 60 mins in presence of NADPH by LC-MS/MS analysis; type: ADME, Microsome; settings: read-out: CLH
[12] = Microsomal stability in human liver microsomes assessed as intrinsic clearance in liver measured up to 60 mins in presence of NADPH by LC-MS/MS analysis; type: ADME, Microsome; settings: read-out: CLH
[13] = Microsomal stability in human liver microsomes assessed as compound remaining measured up to 60 mins in presence of NADPH by LC-MS/MS analysis; type: ADME, Microsome; settings: read-out: Stability
[14] = Microsomal stability in human liver microsomes assessed as compound remaining measured up to 60 mins by LC-MS/MS analysis; type: ADME, Microsome; settings: read-out: Stability
[15] = target: T1, Protein cereblon/Tyrosine-protein kinase BTK; assay: PROTAC activity at CRBN/BTK in human JeKo-1 cells assessed as hook effect up to 1 uM incubated for 24 hrs by Western blot analysis; type: cell-based
Target sequence in this assay (Q06187 2-659 limits assumed): as the sequence (Q06187 2-659 limits assumed) above
Target sequence in this assay (Q96SW2 whole entry partner): as the sequence (Q96SW2 whole entry partner) above

[16] = target: T1, Protein cereblon/Tyrosine-protein kinase BTK; assay: PROTAC activity at CRBN/BTK in human JeKo-1 cells assessed as BTK degradation at 100 nM by Western blot analysis; type: cell-based; settings: time 1-24 hrs
Target sequence in this assay (Q06187 2-659 limits assumed): as the sequence (Q06187 2-659 limits assumed) above
Target sequence in this assay (Q96SW2 whole entry partner): as the sequence (Q96SW2 whole entry partner) above

[17] = target: T1, Protein cereblon/Tyrosine-protein kinase BTK; assay: PROTAC activity at CRBN/BTK in human JeKo-1 cells assessed as BTK degradation at 100 nM measured after 4 hrs by Western blot analysis relative to control; type: cell-based
[18] = target: T1, Protein cereblon/Tyrosine-protein kinase BTK; assay: PROTAC activity at CRBN/BTK in human TMD8 cells assessed as BTK degradation measured after 24 hrs by Western blot analysis; type: cell-based
[19] = test system: Protein cereblon/Tyrosine-protein kinase BTK (Homo sapiens), Q06187+Q96SW2 [C481S]; assay: (§1) PROTAC activity at CRBN/BTK C481S mutant (unknown origin) expressed in human TMD8 cells assessed as BTK degradation measured after 24 hrs by Western blot analysis; type: cell-based; settings: dose 0.1-1000 nM
[20] = target: Protein cereblon/Tyrosine-protein kinase BTK (Homo sapiens, UniProt Q06187+Q96SW2, C481S); assay: as §1; type: cell-based
[21] = target: T1, Protein cereblon/Tyrosine-protein kinase BTK; assay: PROTAC activity at CRBN/BTK in human JeKo-1 cells assessed as BTK degradation at 10 nM incubated for 24 hrs in presence of MLN-4924 by Western blot analysis; type: cell-based
[22] = target: T1, Protein cereblon/Tyrosine-protein kinase BTK; assay: PROTAC activity at CRBN/BTK in human JeKo-1 cells assessed as BTK degradation at 10 nM incubated for 24 hrs in presence of bortezomib by Western blot analysis; type: cell-based
[23] = target: T1, Protein cereblon/Tyrosine-protein kinase BTK; assay: PROTAC activity at CRBN/BTK in human JeKo-1 cells assessed as BTK degradation incubated for 8 hrs by Western blot analysis; type: cell-based; settings: dose 0.1-1000 nM
JeKo-1 [24] = assay: Effect on IKZF3 level in human JeKo-1 cells at 0.1 to 1000 nM incubated for 8 hrs by Western blot analysis; type: functional, cell-based; settings: dose 0.1-1000 nM
JeKo-1 [25] = assay: Effect on GSPT1 level in human JeKo-1 cells at 0.1 to 1000 nM incubated for 8 hrs by Western blot analysis; type: functional, cell-based; settings: dose 0.1-1000 nM
JeKo-1 [26] = assay: Effect on IKZF1 level in human JeKo-1 cells at 0.1 to 1000 nM incubated for 8 hrs by Western blot analysis; type: functional, cell-based; settings: dose 0.1-1000 nM
[27] = target: T1, Protein cereblon/Tyrosine-protein kinase BTK; assay: PROTAC activity at CRBN/BTK in human JeKo-1 cells assessed as BTK degradation at 100 nM incubated for 4 hrs by Label-free MS proteomics analysis; type: cell-based
JeKo-1 [28] = assay: Downregulation of CSK level in human JeKo-1 cells at 100 nM incubated for 4 hrs by Label-free MS proteomics analysis; type: functional, cell-based
JeKo-1 [29] = assay: Downregulation of BLK level in human JeKo-1 cells at 100 nM incubated for 4 hrs by Label-free MS proteomics analysis; type: functional, cell-based
[30] = Cytotoxicity against human TMD8 cells harboring wild-type BTK assessed as inhibition of cell viability incubated for 5 days by CCK8 assay; type: functional, cell-based; settings: TMD8, 120 h
[31] = Cytotoxicity against human TMD8 cells harboring BTK C481S mutant assessed as inhibition of cell viability incubated for 5 days by CCK8 assay; type: functional, cell-based; settings: TMD8, 120 h
[32] = Toxicity in mouse at 30 mg/kg, ip measured for 0.083 to 24 hrs by LC-MS/MS analysis; type: organism-based; settings: in vivo, time 0.083-24 hrs

Protein cereblon/Tyrosine-protein kinase BTK (Homo sapiens, UniProt Q06187+Q96SW2, C481S), sequence (Q06187 whole entry, looked up, stated change not applied): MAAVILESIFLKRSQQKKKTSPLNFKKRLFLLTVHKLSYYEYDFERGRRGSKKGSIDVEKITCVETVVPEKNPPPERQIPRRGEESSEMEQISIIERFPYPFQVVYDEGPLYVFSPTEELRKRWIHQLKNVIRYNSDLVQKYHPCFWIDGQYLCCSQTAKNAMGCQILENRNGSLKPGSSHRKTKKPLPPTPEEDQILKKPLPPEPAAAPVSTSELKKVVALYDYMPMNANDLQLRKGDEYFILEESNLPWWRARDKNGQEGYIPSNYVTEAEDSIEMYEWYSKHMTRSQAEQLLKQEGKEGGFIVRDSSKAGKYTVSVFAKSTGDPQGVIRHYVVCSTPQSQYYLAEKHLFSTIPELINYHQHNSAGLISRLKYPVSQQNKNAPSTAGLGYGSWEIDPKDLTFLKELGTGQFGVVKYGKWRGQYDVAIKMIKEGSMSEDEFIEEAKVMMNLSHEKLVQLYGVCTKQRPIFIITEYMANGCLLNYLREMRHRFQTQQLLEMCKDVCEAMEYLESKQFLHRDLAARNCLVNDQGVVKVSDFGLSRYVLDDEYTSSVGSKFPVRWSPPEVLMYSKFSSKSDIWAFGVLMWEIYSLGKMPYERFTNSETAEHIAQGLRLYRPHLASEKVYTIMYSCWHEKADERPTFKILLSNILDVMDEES
Protein cereblon/Tyrosine-protein kinase BTK (Homo sapiens, UniProt Q06187+Q96SW2, C481S), sequence (Q96SW2 whole entry, looked up, stated change not applied): as the sequence (Q96SW2 whole entry partner) above

Activity [1]: inactive
SMILES: CN1C(=O)CCC(c2ccc(N3CCC(CCN4CCC(CC(=O)N[C@H]5CC[C@H](Nc6ncnc7[nH]cc(C(=O)c8ccc(Oc9ccccc9)cc8)c67)C5)CC4)CC3)nc2)C1=O (stereo partly drawn)

Activity [1]: inactive
SMILES: CN1C(=O)CCC(c2ccc(N3CCC(CCN4CCC(CC(=O)N[C@H]5CC[C@H](Nc6ncnc7[nH]cc(C(=O)c8ccc(Oc9ccccc9)cc8)c67)C5)CC4)CC3)cc2)C1=O (stereo partly drawn)

SMILES: O=C1CCC(c2ccc(N3CCC(CCN4CCC(CC(=O)N[C@H]5CC[C@H](Nc6ncnc7[nH]cc(C(=O)c8ccc(Oc9ccccc9)cc8)c67)C5)CC4)CC3)nc2)C(=O)N1 (stereo partly drawn)
Activity [2]: Non-toxic
concentration at 24 h [3]: > 0.1 µM
AUC(0-t) [4]: 1730 ng·h/mL
Cmax [5]: 3.67 µM
Activity [6]: 89%
Activity [7]: 94%
Activity [8]: 91%
DC50 [9]: 2.9 nM
Activity ([9]; dose 0.01-1000 nM): Dose-dependent-effect
half-life [10]: > 2.42 h
microsomal CLint [11]: < 9.6 µL/min/mg
CLint scaled [12]: < 8.6 mL/min/kg
remaining at 1 h [13]: 106%
remaining at 1 h [14]: 79.3%
Activity [15]: inactive
Activity [16]: Time-dependent-effect; Compound Exhibited Significant Reduction At 1 Hr
Activity [17]: 100%
DC50 [18]: 2.8 nM
Activity ([18]; dose 0.1-1000 nM): Dose-dependent-effect
Activity [19]: Dose-dependent-effect
DC50 [20]: 4.3 nM
Activity [21]: inactive
Activity [22]: inactive
Activity [23]: Dose-dependent-effect
Activity (JeKo-1 [24]): inactive
Activity (JeKo-1 [25]): inactive
Activity (JeKo-1 [26]): inactive
Activity [27]: Active
Activity (JeKo-1 [28]): Active
Activity (JeKo-1 [29]): Active
IC50 [30]: 9.9 nM
IC50 [31]: 18.2 nM
Activity [32]: Non-toxic

Activity [6]: 56%
Activity [7]: 76%
Activity [8]: 88%
SMILES: O=C1CCC(N2Cc3cc(N4CCC(CCN5CCC(CC(=O)NC6CCN(c7ncnc8[nH]cc(C(=O)c9ccc(Oc%10ccccc%10)cc9Cl)c78)CC6)CC5)CC4)c(F)cc3C2=O)C(=O)N1 (stereo not drawn)
